Activity calls are given as the source filed them. Where only a bound is given, the exact number is not on record here.

In one assay the target is T1, Aminopeptidase N (Plasmodium falciparum FcB1/Columbia, UniProt O96935).
T1 sequence (O96935 whole entry): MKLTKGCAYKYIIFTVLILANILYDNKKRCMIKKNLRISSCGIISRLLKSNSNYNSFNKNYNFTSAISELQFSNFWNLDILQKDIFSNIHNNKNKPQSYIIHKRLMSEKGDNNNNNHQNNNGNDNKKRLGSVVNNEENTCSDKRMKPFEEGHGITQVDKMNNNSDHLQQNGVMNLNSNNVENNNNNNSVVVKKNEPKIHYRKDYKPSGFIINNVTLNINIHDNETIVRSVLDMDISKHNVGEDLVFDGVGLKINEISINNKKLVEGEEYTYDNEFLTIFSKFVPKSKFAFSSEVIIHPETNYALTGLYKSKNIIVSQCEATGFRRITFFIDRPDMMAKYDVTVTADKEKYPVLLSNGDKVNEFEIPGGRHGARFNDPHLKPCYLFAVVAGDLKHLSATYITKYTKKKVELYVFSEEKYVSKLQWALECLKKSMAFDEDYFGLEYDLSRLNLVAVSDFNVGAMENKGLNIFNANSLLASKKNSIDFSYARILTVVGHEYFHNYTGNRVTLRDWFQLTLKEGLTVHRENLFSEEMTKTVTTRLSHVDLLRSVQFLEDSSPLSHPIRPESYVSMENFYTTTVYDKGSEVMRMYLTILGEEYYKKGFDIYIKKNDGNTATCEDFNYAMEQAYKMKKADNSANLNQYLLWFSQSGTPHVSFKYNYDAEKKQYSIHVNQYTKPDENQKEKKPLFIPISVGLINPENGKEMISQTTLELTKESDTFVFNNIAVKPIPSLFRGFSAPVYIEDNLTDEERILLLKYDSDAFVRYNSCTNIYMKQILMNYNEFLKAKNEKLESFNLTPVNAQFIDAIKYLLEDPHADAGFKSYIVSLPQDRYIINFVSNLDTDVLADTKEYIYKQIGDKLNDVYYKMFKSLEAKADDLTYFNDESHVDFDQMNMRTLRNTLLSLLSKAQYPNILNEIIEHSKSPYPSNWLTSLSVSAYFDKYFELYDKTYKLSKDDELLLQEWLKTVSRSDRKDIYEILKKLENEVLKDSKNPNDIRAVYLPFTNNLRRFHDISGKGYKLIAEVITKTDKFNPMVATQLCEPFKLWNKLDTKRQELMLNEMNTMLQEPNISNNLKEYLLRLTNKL
As to the kind of experiment: P. falciparum M1AAP inhibitors, biochemical, fluorogenic H-Leu-NHMec substrate, 1536-well (AID 1445). On the set-up: species or system Plasmodium falciparum 3D7, 3D7.

The next assay has as its target Genome polyprotein (dengue virus type 2, UniProt P29990). As to the kind of experiment: Dengue-2 NS5 methyltransferase inhibitors, primary screen, biochemical, confirmation dose response (AID 588689). In kind it is functional.
Assay [1] has as its target T2, High affinity choline transporter 1 (Homo sapiens, UniProt Q9GZV3).
T2 sequence (Q9GZV3 whole entry): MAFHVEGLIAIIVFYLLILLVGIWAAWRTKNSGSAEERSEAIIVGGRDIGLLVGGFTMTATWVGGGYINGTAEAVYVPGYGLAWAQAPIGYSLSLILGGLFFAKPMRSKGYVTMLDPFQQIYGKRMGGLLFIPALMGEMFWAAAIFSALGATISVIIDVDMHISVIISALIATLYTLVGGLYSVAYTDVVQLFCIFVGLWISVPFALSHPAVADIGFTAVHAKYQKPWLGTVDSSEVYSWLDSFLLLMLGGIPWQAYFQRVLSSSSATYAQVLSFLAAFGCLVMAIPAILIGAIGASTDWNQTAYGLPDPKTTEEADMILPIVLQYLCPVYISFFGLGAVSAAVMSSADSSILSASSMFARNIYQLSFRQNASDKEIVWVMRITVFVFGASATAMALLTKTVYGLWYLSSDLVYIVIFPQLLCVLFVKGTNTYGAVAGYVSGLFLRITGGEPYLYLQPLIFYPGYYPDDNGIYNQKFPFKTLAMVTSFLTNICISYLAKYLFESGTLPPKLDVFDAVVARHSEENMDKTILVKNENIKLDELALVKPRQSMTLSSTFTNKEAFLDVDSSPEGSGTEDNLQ
Briefly: CHT inhibitors, dose response, cell-based, 5-point CRC, membrane potential dye (AID 504840). In kind it is functional.

Assay [2] is described as follows: cells. It is filed as functional, cell-based.
A short description of assay [3]: cells. In kind it is functional, cell-based. The source holds these as a separate data set.
The target of assay [4] is T3, Heat shock factor protein 1 (Mus musculus, UniProt P38532).
T3 sequence (P38532 whole entry): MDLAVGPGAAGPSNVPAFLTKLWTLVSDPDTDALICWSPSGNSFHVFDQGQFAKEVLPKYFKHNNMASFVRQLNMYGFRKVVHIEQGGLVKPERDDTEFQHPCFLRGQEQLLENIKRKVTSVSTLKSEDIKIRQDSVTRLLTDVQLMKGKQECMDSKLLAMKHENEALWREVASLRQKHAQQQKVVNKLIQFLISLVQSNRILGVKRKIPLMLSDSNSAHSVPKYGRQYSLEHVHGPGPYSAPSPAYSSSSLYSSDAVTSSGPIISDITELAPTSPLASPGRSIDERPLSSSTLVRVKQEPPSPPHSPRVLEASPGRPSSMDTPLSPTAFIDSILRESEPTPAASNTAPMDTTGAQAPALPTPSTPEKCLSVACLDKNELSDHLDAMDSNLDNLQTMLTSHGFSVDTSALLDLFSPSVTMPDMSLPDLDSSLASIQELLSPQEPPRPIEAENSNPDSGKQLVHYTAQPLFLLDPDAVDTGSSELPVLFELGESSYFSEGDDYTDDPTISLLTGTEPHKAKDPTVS
As to the kind of experiment: HSF1 potentiators in luciferase reporter cells, confirmation, cell-based, NIH3T3, luminescence, dose retest (AID 435004).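 Note: stress induced by proteasome inhibitor MG132 added 30 min after compound; luciferase reporter driven by HSF1 response element in NIH3T3 cells; actives raise luminescence as potentiators of the MG132 stress response.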 In kind it is functional.

Assay [5] is described as follows: Shn3 3'UTR reporter inhibitors, dose response, cell-based, Clone20 osteoblasts, firefly luciferase, cherry-picked (AID 624132).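 Note: firefly luciferase luminescence from reporter carrying the Shn3 3'UTR in osteoblasts.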 It is filed as functional.
The nature of assay [6]: HepG2 cell cytotoxicity, dose response, cytotoxicity control for Shn3 inhibitor project, CellTiter-Glo, cherry-picked (AID 624134). It is filed as functional, cell-based.
A short description of assay [7]: control 3'UTR Renilla luciferase suppression, dose response, counter-screen for Shn3 inhibitor project, cell-based, Clone20-Shn3RL, cherry-picked (AID 624133). It is filed as functional.
Assay [8] is described as follows: intracellular Trypanosoma cruzi inhibitors in host cells – cell-based, plate reader, cherry-pick samples, set 3, dose response (AID 651818).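 Note: compounds incubated with infected cells for about four days.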 It is filed as functional.
In another assay the target is Paired box protein Pax-8 (Homo sapiens, UniProt Q06710). As to the kind of experiment: inhibitors of PAX8-driven TPO luciferase reporter, dose response, RMG-I cells, cherry-pick (AID 687027).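 Note: luciferase reporter driven by Pax8 target thyroperoxidase promoter measured by SteadyGlo luminescence.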 It is filed as functional, cell-based.
Assay [9] can be described thus: cytotoxicity in OVCAR8 ovarian cancer cells, dose response, PAX8 project, cell-based, plate reader, dry powder samples (AID 743197). In kind it is functional. Conditions: OVCAR-8.
Assay [10] can be described thus: Luminescence Cell-Based Dose Retest to Confirm Inhibitors of Cancer Stem Cells. [Related pubchem assays (depositor defined):AID2717, AID2721]. It is filed as functional. Conditions: Homo sapiens.
Assay [11] can be described thus: A549 cell cytotoxicity, dose response, cytotoxicity control, plate reader, cherry-pick, antagonist series (AID 743412). It is filed as functional, cell-based.

Chain of Paired box protein Pax-8 (Q06710 whole entry): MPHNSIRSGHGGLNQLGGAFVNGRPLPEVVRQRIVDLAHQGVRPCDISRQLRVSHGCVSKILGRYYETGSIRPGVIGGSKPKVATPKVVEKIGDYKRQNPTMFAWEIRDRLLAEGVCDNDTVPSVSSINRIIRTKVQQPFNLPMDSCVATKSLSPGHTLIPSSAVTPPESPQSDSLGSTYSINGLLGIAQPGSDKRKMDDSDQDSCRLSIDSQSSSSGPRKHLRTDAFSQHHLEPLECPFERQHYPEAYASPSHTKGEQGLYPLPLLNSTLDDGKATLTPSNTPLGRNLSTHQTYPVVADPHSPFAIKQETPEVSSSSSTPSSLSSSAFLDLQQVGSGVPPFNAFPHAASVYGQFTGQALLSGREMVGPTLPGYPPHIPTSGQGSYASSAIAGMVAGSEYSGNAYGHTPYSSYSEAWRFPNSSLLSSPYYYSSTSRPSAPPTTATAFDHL
Chain of Genome polyprotein (P29990 2492-3391 limits assumed): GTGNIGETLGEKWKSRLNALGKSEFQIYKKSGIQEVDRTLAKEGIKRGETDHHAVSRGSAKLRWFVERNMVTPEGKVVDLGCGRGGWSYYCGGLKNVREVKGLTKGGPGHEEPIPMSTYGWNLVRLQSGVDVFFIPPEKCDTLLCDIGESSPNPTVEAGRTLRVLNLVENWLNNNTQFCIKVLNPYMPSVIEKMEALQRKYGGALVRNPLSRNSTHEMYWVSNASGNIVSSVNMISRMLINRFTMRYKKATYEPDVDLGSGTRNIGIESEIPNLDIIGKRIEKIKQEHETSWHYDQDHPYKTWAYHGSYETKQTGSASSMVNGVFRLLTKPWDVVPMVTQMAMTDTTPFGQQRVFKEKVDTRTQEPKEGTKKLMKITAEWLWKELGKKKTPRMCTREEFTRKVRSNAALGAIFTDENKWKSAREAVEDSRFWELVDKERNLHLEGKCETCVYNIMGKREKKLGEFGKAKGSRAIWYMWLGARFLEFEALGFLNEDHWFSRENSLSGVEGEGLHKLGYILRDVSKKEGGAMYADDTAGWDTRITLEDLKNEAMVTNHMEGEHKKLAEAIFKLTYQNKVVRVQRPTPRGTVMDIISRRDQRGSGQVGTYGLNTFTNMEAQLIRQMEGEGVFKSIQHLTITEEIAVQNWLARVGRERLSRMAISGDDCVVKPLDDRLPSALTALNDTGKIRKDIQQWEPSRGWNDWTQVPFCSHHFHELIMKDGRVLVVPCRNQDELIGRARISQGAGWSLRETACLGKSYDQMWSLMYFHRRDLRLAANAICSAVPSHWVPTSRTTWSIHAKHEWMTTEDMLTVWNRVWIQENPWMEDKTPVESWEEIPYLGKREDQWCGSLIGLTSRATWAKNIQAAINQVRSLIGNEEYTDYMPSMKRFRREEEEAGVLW

For `O=S(=O)(c1ccc2c(c1)OCCO2)N1CCC(n2nnc3cc(F)ccc32)CC1`, on Aminopeptidase N, the IC50 is 8.18 µM (active).

Regarding `Nc1ccccc1Sc1ccc(C(=O)c2ccccc2C(=O)O)cc1[N+](=O)[O-]`, the IC50 at Aminopeptidase N was 98.9 µM (active). On to `COc1ccc(CNC(=O)C2CCN(S(=O)(=O)c3cc(OC)ccc3OC)CC2)cc1`, for which the IC50 at Aminopeptidase N is 99 µM (active). Consider `O=C1NC(=O)C(=Cc2c[nH]nc2-c2ccccc2)C(=O)N1`, for which, on Genome polyprotein, the IC50 was 53 µM (active). Turning to `COc1ccc(C2(O)CCN(C(=O)NC3CCCCC3)CC2)cc1`, the IC50 in [1] is 14.5 µM (active). Turning to `O=C1c2ccccc2C(O)(c2ccccc2)N1c1ccc([N+](=O)[O-])cc1Cl` (configuration not stated), the IC50 at Genome polyprotein was 60.8 µM (active). For the compound `O=C(CNC(=O)c1ccccc1Br)N/N=C/c1cc(Br)ccc1O`, the IC50 on Aminopeptidase N was 26.6 µM (active). Moreover, the EC50 in “cells [2]” was 34.7 µM (active); in “cells [3]”, > 350 µM (not active). As to `CCCCCn1c(N2CCN(c3cccc(Cl)c3)CC2)nc2c1c(=O)[nH]c(=O)n2C`, in assay [4], the EC50 was > 260 µM (inactive). Moreover, the figures for the AC50 in [5], in assay [6] and in assay [7] were 21.8 µM (active), 59.4 µM (active) and 18.3 µM (active), respectively. Take `C[C@@H]1CN([C@@H](C)CO)C(=O)Cc2cc(NC(=O)CCC(F)(F)F)ccc2O[C@@H]1CN(C)Cc1ccc(C(=O)Nc2ccccc2N)cc1`: the AC50 in assay [8] is 2.67 µM (active). Turning to `C[C@@H]1CN([C@@H](C)CO)C(=O)c2cccc(NC(=O)c3cnccn3)c2O[C@@H]1CN(C)Cc1ccc(C(=O)Nc2ccccc2N)cc1`, the AC50 in assay [8] was 2.35 µM (active). As to `CCc1ccc(S(=O)(=O)NCc2cn3cccc(C)c3n2)s1`, the IC50 in assay [1] is 13.8 µM (active). With `C[C@H]1CN([C@@H](C)CO)C(=O)c2cccc(NC(=O)Nc3ccc(F)cc3)c2O[C@@H]1CN(C)Cc1ccc(C(=O)Nc2ccccc2N)cc1`, the AC50 in assay [8] is 3.18 µM (active). For the compound `C[C@H]1CCCCO[C@H](CN(C)Cc2ccc(Cl)c(Cl)c2)[C@@H](C)CN([C@@H](C)CO)C(=O)c2cc(NC(=O)Nc3ccccc3)ccc2O1`, the AC50 was 13.1 µM (active) on Paired box protein Pax-8 and > 70 µM (inactive) in [9]. On to `C[C@@H]1CCCCO[C@@H](CN(C)Cc2ccc(C(F)(F)F)cc2)[C@@H](C)CN([C@@H](C)CO)C(=O)c2cc(NS(=O)(=O)c3ccccc3)ccc2O1`, for which the AC50 at Paired box protein Pax-8 was 7.21 µM (active); in [9], > 70 µM (inactive).

For the compound `O=C(O)c1cccc(S(=O)(=O)Nc2ccc([N+](=O)[O-])cc2O)c1`, at Aminopeptidase N, the IC50 was 66.2 µM (active). On to `C[C@@H]1CN([C@H](C)CO)C(=O)c2cccc(NC(=O)c3ccncc3)c2O[C@@H]1CN(C)Cc1ccc(-c2ccccc2)cc1`, for which the AC50 in assay [8] was 4.37 µM (active). `CCc1ccc2oc(C(=O)NCC(c3ccc(OC)cc3)N3CCCCC3)c(C)c2c1` (configuration not stated): the AC50 in assay [10] is 3.23 µM (active). Further, the IC50 in [1] was 2.29 µM (active). `C[C@@H]1CN([C@@H](C)CO)C(=O)c2cccc(NC(=O)C3CCCCC3)c2O[C@H]1CN(C)Cc1ccc(-c2ccccc2)cc1`: the AC50 in [8] is 3.29 µM (active). As for `Cc1noc(C)c1S(=O)(=O)Nc1ccc2c(c1)C(=O)N([C@H](C)CO)C[C@H](C)[C@@H](CN(C)C(=O)Nc1ccc(C(F)(F)F)cc1)OCCCC[C@@H](C)O2`, in assay [8], the AC50 is 1.19 µM (active). In the case of `CC[C@H](CO)Oc1cc(NCc2ccc(Cl)c(Cl)c2)c2ncn(C(C)C)c2c1`, the AC50 in assay [11] was 30 µM (active). On to `C[C@@H]1CN([C@H](C)CO)C(=O)c2cc(NS(=O)(=O)c3ccccc3)ccc2O[C@@H](C)CCCCO[C@H]1CN(C)Cc1ccc(Cl)c(Cl)c1`, for which the AC50 is 9.93 µM (active) on Paired box protein Pax-8 and 45 µM (active) in assay [9]. Turning to `Cc1noc(NS(=O)(=O)c2ccc(NC(=O)c3ccccc3NS(=O)(=O)c3ccc(F)cc3)cc2)c1C`, the IC50 at Genome polyprotein is 40.9 µM (active). For the compound `Cc1ccc(C)c(C(=O)COc2ncnc3ccccc23)c1`, the IC50 in assay [1] was 15.1 µM (active).

These data come from ChEMBL document CHEMBL1201862, “PubChem BioAssay data set” (2004).
